Assay results published in ChEMBL document CHEMBL2177097, “Discovery of (2S,3R)-N-[2-(pyridin-3-ylmethyl)-1-azabicyclo[2.2.2]oct-3-yl]benzo[b]furan-2-carboxamide (TC-5619), a selective α7 nicotinic acetylcholine receptor agonist, for the treatment of cognitive disorders” (J Med Chem, 2012).

Assays:
[1] = Drug degradation in human hepatocytes at 4 hrs; assay type: ADME, cell-based, Hepatocyte; details: read-out: Drug degradation
[2] = Half life in rat; assay type: ADME, organism-based; details: in vivo
[3] = Drug degradation in human liver microsomes at 60 mins; assay type: ADME, Microsome; details: read-out: Drug degradation
[4] = Oral bioavailability in rat; assay type: ADME, organism-based; details: in vivo
[5] = Ratio of drug level in brain to plasma in rat measured 6 hrs post dose; assay type: ADME; details: brain and plasma, read-out: BPR

## O=C(N[C@@H]1C2CCN(CC2)[C@H]1Cc1cccnc1)c1cc2ccccc2o1 [BRADANICLINE]
[1]
  metabolised at 4 h: 27%
[2]
  half-life: 2 h
[3]
  metabolised at 1 h: < 25%
[4]
  bioavailability: 20%
[5]
  Kp at 6 h: 0.4
